From article PMC5529018, “Discovery of novel brain permeable and G protein-biased beta-1 adrenergic receptor partial agonists for the treatment of neurocognitive disorders” (PLoS ONE, 2017)

Experiments:
ADR - Alpha 1D = ADR - Alpha 1D (Homo sapiens, UniProt P25100); assay: Radioligand binding ADR Alpha 1D; settings: S2 Table; hot ligand [3H] Prazosin; read-out: Binding Affinity Ki
ADRB3 = ADRB3 (Homo sapiens, UniProt P13945); assay: Radioligand binding ADRB3; settings: S2 Table; hot ligand [3H]CGP12177; read-out: Binding Affinity Ki
ADRB3, sequence (P13945 whole entry): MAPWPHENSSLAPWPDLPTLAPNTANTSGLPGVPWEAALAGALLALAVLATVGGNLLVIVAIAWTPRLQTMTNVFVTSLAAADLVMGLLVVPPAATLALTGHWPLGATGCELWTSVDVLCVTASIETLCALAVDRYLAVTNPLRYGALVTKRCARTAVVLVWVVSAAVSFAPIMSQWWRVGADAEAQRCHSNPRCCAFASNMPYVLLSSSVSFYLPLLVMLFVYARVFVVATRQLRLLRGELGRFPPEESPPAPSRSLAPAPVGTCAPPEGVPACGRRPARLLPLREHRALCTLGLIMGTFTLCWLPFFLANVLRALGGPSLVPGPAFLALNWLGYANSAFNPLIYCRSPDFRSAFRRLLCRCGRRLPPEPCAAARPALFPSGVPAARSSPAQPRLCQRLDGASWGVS

[1] = Cardiovascular studies (heart rate, blood pressure); assay type: in vivo, Sprague-Dawley rats; settings: anesthetized rats, 3 mg/kg subcutaneous
Experimental: A polyethylene catheter (PE50) filled with heparinized saline was then inserted into the tail artery and connected to the blood pressure transducer system. After ensuring the absence of any air bubbles, 5–10 min of baseline systolic and diastolic blood pressure along with heart rate measurements were recorded using LabChart Pro (AD Instruments, CO).

Sigma 1 receptor = Sigma 1 receptor (Homo sapiens, UniProt Q99720); assay: Radioligand binding Sigma 1 receptor; settings: S2 Table; hot ligand [3H]Pentazocine(+); read-out: Binding Affinity Ki
Sigma 1 receptor, sequence (Q99720 whole entry, species assumed): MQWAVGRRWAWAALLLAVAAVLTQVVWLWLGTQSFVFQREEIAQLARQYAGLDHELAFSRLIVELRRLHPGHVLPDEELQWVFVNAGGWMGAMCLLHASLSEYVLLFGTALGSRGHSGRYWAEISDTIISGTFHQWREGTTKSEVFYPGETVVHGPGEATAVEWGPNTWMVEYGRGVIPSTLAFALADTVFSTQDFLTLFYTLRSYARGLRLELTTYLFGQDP

ADR- Alpha 1B = ADR- Alpha 1B (Homo sapiens, UniProt P35368); assay: Radioligand binding ADR Alpha 1B; settings: S2 Table; hot ligand [3H] Prazosin; read-out: Binding Affinity Ki
ADR- Alpha 1B, sequence (P35368 whole entry): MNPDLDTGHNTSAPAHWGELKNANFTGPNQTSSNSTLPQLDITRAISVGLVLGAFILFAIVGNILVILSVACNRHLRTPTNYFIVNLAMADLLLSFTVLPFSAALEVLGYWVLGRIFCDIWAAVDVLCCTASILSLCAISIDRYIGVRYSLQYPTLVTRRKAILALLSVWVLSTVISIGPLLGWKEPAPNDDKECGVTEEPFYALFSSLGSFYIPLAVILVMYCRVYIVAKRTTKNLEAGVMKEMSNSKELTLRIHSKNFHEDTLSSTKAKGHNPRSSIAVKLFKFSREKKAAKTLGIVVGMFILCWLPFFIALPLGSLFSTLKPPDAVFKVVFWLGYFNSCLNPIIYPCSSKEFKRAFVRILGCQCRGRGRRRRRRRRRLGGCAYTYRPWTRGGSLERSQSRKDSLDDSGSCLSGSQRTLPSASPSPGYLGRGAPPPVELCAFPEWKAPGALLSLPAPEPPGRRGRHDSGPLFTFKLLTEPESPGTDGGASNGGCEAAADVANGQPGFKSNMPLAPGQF

ADR - Alpha 2B = ADR - Alpha 2B (Homo sapiens, UniProt P18089); assay: Radioligand binding ADR Alpha 2B; settings: S2 Table; hot ligand [3H] Rauwolscine; read-out: Binding Affinity Ki
ADR - Alpha 2B, sequence (P18089 whole entry): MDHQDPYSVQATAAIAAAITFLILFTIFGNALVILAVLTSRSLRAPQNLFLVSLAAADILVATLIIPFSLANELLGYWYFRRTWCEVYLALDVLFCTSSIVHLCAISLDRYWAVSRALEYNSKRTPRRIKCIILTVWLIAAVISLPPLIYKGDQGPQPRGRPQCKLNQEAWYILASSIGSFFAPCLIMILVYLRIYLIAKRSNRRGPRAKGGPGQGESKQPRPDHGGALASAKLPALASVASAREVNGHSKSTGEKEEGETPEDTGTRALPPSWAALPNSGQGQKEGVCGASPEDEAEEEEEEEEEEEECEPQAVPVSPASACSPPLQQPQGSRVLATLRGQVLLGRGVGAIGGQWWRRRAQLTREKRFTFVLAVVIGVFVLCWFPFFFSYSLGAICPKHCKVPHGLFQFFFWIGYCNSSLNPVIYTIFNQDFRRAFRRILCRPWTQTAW

ADR- Alpha 1A = ADR- Alpha 1A (Homo sapiens, UniProt P35348); assay: Radioligand binding ADR Alpha 1A; settings: S2 Table; hot ligand [3H] Prazosin; read-out: Binding Affinity Ki
ADR- Alpha 1A, sequence (P35348 whole entry): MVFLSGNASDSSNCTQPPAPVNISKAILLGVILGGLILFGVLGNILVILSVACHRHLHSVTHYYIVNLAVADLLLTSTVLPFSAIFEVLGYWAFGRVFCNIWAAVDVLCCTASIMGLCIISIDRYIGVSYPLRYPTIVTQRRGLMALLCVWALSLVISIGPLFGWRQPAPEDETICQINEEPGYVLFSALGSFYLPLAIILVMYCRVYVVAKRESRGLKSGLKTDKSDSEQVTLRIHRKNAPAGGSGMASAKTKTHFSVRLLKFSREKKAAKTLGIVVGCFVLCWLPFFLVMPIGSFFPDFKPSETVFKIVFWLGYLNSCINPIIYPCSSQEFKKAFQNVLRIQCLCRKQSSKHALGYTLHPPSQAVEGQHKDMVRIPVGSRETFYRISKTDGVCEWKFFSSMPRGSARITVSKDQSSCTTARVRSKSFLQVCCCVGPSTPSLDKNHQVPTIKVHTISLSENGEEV

[2] = Pharmacokinetic study 1, 4-hr time course; assay type: in vivo, Sprague-Dawley rats; settings: rat; for AUCinf / Cmax: 10 mg/kg PO
From the text: (§1) Two cohorts of Sprague-Dawley rats were used in two independent studies. All animals were fasted overnight before the experiment with free access to water. In study 1, a total of 18 rats were used for a 4 hr time course pharmacokinetic (PK) study. Rats were anesthetized with 3% isoflurane and catheters were implanted into the jugular and/or portal veins for compound administration and/or blood sampling at 1 to 2 days prior to the experiments as previously described. […] Four hours post-dose, rats were deeply anesthetized with isoflurane and blood samples were collected by cardiac puncture. In study 2, a total of 18 rats were used for a 20 min post-dose collection study. […] At 20 min post-dose, rats were deeply anesthetized with isoflurane and blood samples were collected by cardiac puncture. Brains were collected after perfusion with phosphate buffered saline. All plasma samples were immediately separated after collection by centrifugation (11,000 rpm for 3 minutes) and stored at −80°C until analysis. […] Tulobuterol was used as the internal standard. The flow rate was set to 0.45 ml/min. Column temperature was 25°C. […] The injection volume was 20 μl. The mass spectrometer was operated in the positive mode with multiple-reaction monitoring (MRM). […] Mobile phase A consisted of 10 mM ammonium acetate and 0.1% formic acid in LCMS grade water. Mobile phase B consisted of 10 mM ammonium acetate and 0.1% formic acid in LCMS grade acetonitrile:water 90:10% (v/v). […] Five μl of the extracted samples were injected. […] Data acquisition and analysis were performed using the Analyst 1.6.1 software (AB SCIEX, CA).

[3] = Pharmacokinetic study 2, 20-min post-dose collection; assay type: in vivo, Sprague-Dawley rats; settings: Sprague-Dawley, brain, rat, single administration
From the text: as §1

5-HT 2A = 5-HT 2A (Homo sapiens, UniProt P28223); assay: Radioligand binding 5-HT 2A; settings: S2 Table; hot ligand [3H]Ketanserin; read-out: Binding Affinity Ki
5-HT 2A, sequence (P28223 whole entry, species assumed): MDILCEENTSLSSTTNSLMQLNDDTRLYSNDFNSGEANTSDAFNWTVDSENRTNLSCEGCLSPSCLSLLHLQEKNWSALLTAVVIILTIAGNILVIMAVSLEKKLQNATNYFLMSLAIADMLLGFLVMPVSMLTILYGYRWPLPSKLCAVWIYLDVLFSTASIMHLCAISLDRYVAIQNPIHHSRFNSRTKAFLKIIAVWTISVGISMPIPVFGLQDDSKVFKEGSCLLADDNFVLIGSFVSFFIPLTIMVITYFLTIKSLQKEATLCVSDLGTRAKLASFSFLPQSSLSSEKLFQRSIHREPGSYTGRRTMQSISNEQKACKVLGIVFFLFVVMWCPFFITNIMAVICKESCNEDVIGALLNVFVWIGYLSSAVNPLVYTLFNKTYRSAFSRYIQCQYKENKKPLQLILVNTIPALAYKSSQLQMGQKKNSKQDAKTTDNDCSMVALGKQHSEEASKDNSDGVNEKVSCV

D3 dopamine receptor = D3 dopamine receptor (Homo sapiens, UniProt P35462); assay: Radioligand binding D3; settings: S2 Table; hot ligand [3H]N-Methylspiperone; read-out: Binding Affinity Ki
D3 dopamine receptor, sequence (P35462 whole entry): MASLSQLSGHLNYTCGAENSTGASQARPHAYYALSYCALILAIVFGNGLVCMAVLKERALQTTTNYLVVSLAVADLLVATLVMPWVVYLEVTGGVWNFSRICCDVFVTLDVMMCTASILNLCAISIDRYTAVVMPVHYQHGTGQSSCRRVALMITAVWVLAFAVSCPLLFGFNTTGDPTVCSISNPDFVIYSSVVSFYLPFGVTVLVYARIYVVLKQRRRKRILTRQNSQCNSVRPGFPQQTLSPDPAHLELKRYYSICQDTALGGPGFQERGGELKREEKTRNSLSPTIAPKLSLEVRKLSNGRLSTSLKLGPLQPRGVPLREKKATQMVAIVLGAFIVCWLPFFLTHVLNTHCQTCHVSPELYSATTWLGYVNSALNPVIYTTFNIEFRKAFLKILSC

[4] = system: LPS-induced TNFα response; assay: In vivo LPS assay; set-up: species or system C57Bl/6J mice; settings: 90 min post-LPS
Experimental: ; subcutaneous; […]; intraperitoneal; n = 4) or vehicle (5% DMSO/20%PEG400/water; intraperitoneal; n = 12) 15 min prior to LPS (50 ug/kg; intraperitoneal). A control group was injected with vehicle 15 minutes prior to saline (n = 18). Following injections, mice were single-housed. At 90 min post-LPS/saline, mice were deeply anesthetized with isoflurane and blood was collected from the right ventricle via cardiac puncture (23 g needle) into lithium heparin-containing vials (BD microtainer plasma tubes). Subsequently, brains were collected after perfusion with phosphate-buffered saline. Plasma was separated by centrifugation (11,000 rpm for 3 minutes) within 60 min of collection and stored at -80°C until analysis. The concentration of TNFα in the collected plasma was measured by ELISA (Invitrogen, KMC3012) according to the manufacturer’s instruction. The LPS-induced inflammatory response in the CNS was assessed by measuring mRNA expression for genes related to neuroimmune activation in brain tissue according to the previously reported method. Briefly, total RNA was extracted from hippocampus containing coronal sections using the RNeasy Lipid Tissue Mini Kit (Qiagen), and transcribed into cDNA (Superscript III, Invitrogen). PCR was performed in duplicate using TaqMan gene expression assays, TNFα (Mm00443258_m1), IL1b (Mm00434228_m1), IL6 (Mm00446190_m1), and glyceraldehyde-3-phosphate dehydrogenase (GAPDH; Mm99999915_g1). Fold changes of expression relative to control were determined after normalization to GAPDH. Relative quantification and fold change were calculated by the comparative CT method. Brain uptake of STD-101-D1 was determined in brain tissue. […]

[5] = system: PBR (peripheral benzodiazepine receptor); assay: Radioligand binding PBR; settings: S2 Table; hot ligand [3H]PK11195
5-HT 1D = 5-HT 1D (Homo sapiens, UniProt P28221); assay: Radioligand binding 5-HT 1D; settings: S2 Table; hot ligand [3H]GR125743; read-out: Binding Affinity Ki
5-HT 1D, sequence (P28221 whole entry, species assumed): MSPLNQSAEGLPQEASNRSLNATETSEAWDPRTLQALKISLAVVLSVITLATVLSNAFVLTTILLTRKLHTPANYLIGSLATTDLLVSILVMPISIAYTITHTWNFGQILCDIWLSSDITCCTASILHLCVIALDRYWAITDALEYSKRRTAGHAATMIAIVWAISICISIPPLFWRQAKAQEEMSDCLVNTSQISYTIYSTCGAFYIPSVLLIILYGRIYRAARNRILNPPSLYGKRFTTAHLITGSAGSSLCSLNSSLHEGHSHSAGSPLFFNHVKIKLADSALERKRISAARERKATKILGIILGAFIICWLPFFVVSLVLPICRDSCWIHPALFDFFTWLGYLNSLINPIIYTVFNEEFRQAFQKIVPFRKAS

5-HT 1A = 5-HT 1A (Homo sapiens, UniProt P08908); assay: Radioligand binding 5-HT 1A; settings: S2 Table; hot ligand [3H]8-OH-DPAT; read-out: Binding Affinity Ki
5-HT 1A, sequence (P08908 whole entry, species assumed): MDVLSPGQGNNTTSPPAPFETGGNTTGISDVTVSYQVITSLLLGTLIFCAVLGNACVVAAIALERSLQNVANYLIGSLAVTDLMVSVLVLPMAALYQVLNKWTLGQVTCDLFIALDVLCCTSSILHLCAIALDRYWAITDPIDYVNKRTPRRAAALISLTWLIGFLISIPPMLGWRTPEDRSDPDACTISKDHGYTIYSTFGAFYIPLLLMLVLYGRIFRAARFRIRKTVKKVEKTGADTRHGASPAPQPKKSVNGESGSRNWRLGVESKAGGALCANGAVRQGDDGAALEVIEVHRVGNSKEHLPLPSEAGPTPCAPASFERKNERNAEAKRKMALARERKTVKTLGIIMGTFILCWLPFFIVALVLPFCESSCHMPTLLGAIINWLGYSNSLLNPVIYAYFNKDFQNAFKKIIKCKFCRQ

5-HT1B = 5-HT1B (Homo sapiens, UniProt P28222); assay: Radioligand binding 5-HT1B; settings: S2 Table; hot ligand [3H]GR125743; read-out: Binding Affinity Ki
5-HT1B, sequence (P28222 whole entry, species assumed): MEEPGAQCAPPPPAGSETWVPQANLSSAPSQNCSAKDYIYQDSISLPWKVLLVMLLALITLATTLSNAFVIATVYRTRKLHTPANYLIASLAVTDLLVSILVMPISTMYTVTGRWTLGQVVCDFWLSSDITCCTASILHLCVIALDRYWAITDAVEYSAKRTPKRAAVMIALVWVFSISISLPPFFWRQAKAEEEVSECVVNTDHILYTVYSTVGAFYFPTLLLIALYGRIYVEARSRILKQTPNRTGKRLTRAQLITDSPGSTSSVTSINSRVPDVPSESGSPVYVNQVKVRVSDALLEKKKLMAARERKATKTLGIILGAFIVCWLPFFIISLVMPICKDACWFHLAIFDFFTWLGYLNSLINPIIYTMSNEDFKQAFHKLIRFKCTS

ADR - Alpha 1D, sequence (P25100 whole entry): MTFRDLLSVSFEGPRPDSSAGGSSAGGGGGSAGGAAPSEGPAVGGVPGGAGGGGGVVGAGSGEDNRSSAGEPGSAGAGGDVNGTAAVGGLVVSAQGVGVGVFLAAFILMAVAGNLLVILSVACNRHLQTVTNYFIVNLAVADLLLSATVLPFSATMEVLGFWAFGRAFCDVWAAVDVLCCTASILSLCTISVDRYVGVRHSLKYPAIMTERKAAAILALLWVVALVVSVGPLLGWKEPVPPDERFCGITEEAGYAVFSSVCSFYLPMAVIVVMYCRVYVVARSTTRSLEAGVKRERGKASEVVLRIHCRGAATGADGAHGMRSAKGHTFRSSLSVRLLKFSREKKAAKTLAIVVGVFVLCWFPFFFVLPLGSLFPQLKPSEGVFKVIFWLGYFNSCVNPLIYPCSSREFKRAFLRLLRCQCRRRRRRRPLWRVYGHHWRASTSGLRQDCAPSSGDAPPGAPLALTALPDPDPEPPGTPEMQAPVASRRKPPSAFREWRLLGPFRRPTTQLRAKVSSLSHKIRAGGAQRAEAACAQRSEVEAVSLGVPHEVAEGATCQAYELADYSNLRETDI

## COc1ccccc1OCCNC[C@H](O)COc1ccc(O)cc1.COc1ccccc1OCCNC[C@H](O)COc1ccc(O)cc1.O=C(O)/C=C/C(=O)O [STD-101-D1, (S)-4-(2-hydroxy-3-((2-(2-methoxyphenoxy)ethyl)amino)propoxy)phenol hemifumarate]
ADR - Alpha 1D
  Ki: 25 nM
ADRB3
  Ki: 485 nM
[1]
  decrease in blood pressure: 46%
  increase in heart rate: 13%
Sigma 1 receptor
  Ki: 146 nM
ADR- Alpha 1B
  Ki: 267 nM
ADR - Alpha 2B
  Ki: 337 nM
ADR- Alpha 1A
  Ki: 17 nM
[2]; 10 mg/kg IP, systemic plasma
  time post-dose at which Cmax was achieved: 90 min
[2]; portal vein plasma
  AUCinf: 362 ± 367 ng·h/mL
  Cmax: 946 ± 867 ng/mL
[2]; systemic (jugular vein) plasma
  AUCinf: 101 ± 29 ng·h/mL
  Cmax: 116 ± 78 ng/mL
[3]; ip, 10 mg/kg intraperitoneally
  concentration at 20 min: 288 nM
[3]; iv, 10 mg/kg intravenously
  concentration at 20 min: 2500 nM
5-HT 2A
  Ki: 1240 nM
D3 dopamine receptor
  Ki: 47 nM
[4]; 3 mg/kg pre-treatment 15 min prior to LPS
  LPS-induced systemic (plasma) TNFα response: markedly inhibited
[4]; 3 mg/kg pre-treatment
  CNS IL-1β (mRNA) after LPS: trend for attenuation
  CNS IL-6 (mRNA) after LPS: no effect
  LPS-induced inflammatory TNFα response in the brain (mRNA): attenuated
[5]
  Binding Affinity Ki: - (< 50% inhibition of radioligand binding at 10 μM STD-101-D1)
5-HT 1D
  Ki: 149 nM
5-HT 1A
  Ki: 11 nM
5-HT1B
  Ki: 382 nM
